Reference: PMC4038613, “A New Class of Multimerization Selective Inhibitors of HIV-1 Integrase” (PLoS Pathogens, 2014)
Where two headings read alike, the source gives them in different places.

Experiments:
[1] = biological target: T1, HIV-1 IN (Human immunodeficiency virus type 1 group M subtype B, UniProt P12497); conditions: IC50 for inhibiting IN-LEDGF/p75 binding divided by EC50 for aberrant IN multimerization; fold
Description: (§1) HTRF-based IN multimerization and IN-LEDGF/p75 binding assays were carried out as described previously [33]. The HTRF signal was recorded using a Perkin Elmer Multimode EnSpire plate reader.

[2] = in vitro; type: cell-based
Description: The cytotoxcity assays were performed as described previously. The fitted dose-response curves were generated to calculate EC50 or CC50 using Origin software (OriginLab, Inc.).

[3] = biological target: T2, IN-LEDGF/p75 (Human immunodeficiency virus type 1 group M subtype B, UniProt P12497); parameters: method as in PMID 22437836; conditions: HTRF; read-out: IC50 for IN-LEDGF/75 binding; cited from earlier work
[4] = system: HIV-1NL4-3; experiment: microbe, parasite or virus in culture; type: cell-based; conditions: for Selectivity Index, CC50/IC50: CC50 for cytotoxicity by IC50 for antiviral activity
[5] = system: A128T IN HIV-1NL4-3; experiment: A128T HIV-1 infectivity in TZM-bl cells; type: cell-based; conditions: particles produced in presence of inhibitor
[6] = system: HIV-1NL4-3; conditions: cited from earlier work
[7] = biological target: T1, HIV-1 IN; parameters: DLS analysis of KF116-induced multimerization of recombinant IN; method as in PMID 22437836; conditions: HTRF; read-out: EC50 for aberrant IN multimerization; cited from earlier work
[8] = system: LEDGF/p75-dependent HIV-1 integration; experiment: HIV-1 integration site distribution (ligation-mediated PCR, 454-pyrosequencing); type: cell-based
[9] = system: HIV-1 expression; type: cell-based; conditions: for inhibition of HIV-1 expression: target cells
[10] = system: VSV-G pseudotyped HIV-1-Luc in PSIP1 KO HEK293T cells; experiment: microbe, parasite or virus in culture; type: cell-based
[11] = system: HIV-1; experiment: Antiviral assay, late stage (inhibitor added to producer cells); type: cell-based; conditions: Human immunodeficiency virus 1, virions prepared in presence of inhibitor, untreated target cells; called IC50
Description: Results represent mean ± SD from three independent experiments.
For late stage experiments, the progeny virions were prepared in the presence of the indicated concentrations of the test inhibitor or diluent control (DMSO) and were then used to infect untreated target cells.

[12] = system: HIV-1; parameters: method as in PMID 24040198; conditions: ref 41; read-out: IC50 in target cells; cited from earlier work
[13] = biological target: T2, IN-LEDGF/p75; experiment: HTRF-based IN-LEDGF/p75 binding assay; parameters: species or system HIV-1
Description: HTRF-based IN multimerization and IN-LEDGF/p75 binding assays were carried out as described previously [33].

[14] = biological target: T1, HIV-1 IN; experiment: biochemical
Description: as §1

[15] = system: VSV-G pseudotyped HIV-1-Luc; type: cell-based
[16] = biological target: the molecule itself; experiment: AlphaScreen or HTRF; HTRF-based IN multimerization assay in vitro, compound (KF115 or KF116) titrated; carried out as described in ref. 33
[17] = biological target: the molecule itself; experiment: cross-linking; concentrated, detergent-lysed virions (50 ng p24) from HEK293T cells treated with DMSO or 1 µM KF116; 50 µM BS3; SDS-PAGE and immunoblot with HIV-1 IN antibody
[18] = ref 33, 41, read-out: antiviral activity IC50
[19] = Target, 5 µM, *** P<0.001 vs DMSO
[20] = target cells, 10 µM, *** P<0.001 vs DMSO

COC(C(=O)O)c1c(C)nc2ccc(Br)cc2c1-c1ccc(Cl)cc1 (stereo not drawn) [BI-1001, reference compound]
Selectivity ratio, IC50 IN-LEDGF/EC50 aberrant IN multimerization [1]: 0.2 | CC50 [2]: > 100000 nM | IC50 [3]: 1000 ± 100 nM | Selectivity Index, CC50/IC50 [4]: >17 | A128T IN HIV-1NL4-3 replication in infected cells [5]: marked resistance | IC50 [6, 18]: ~5800 nM | IC50 ([6]; ref 33, read-out: Antiviral activity (IC50)): 5800 ± 100 nM | EC50 [7]: 4900 ± 300 nM

Cc1nc2ccccc2c(-c2cc(F)c3c(c2C)CCCO3)c1[C@H](OC(C)(C)C)C(=O)O [GS-B, reference compound]
% in RefSeq (HIV-1 integration frequency) ([8]; Producer, 100 nM): 84.00% | % in known genes (HIV-1 integration frequency) ([8]; Producer, 100 nM): 85.71% | % in RefSeq (HIV-1 integration frequency) [8, 19]: 73.83% | % in known genes (HIV-1 integration frequency) [8, 19]: 75.74% | % in RefSeq (HIV-1 integration frequency) [8, 20]: 74.76% | % in known genes (HIV-1 integration frequency) [8, 20]: 77.39% | inhibition of HIV-1 expression ([9]; 5 µM): ~71% | inhibition of HIV-1 expression ([9]; 10 µM): ~88% | reduction in target cell HIV-1 expression ([9]; virus-producer cells treated with 0.1 µM): ~77% | effect of complete loss of LEDGF/p75 protein in virus-producer cells on IC50 values [10]: did not alter | EC50 [11]: 39 nM | IC50 [6, 18]: ~26 nM | EC50 ([6]; same value given in b14 with ref 33, 41, read-out: EC50 for full replication cycle): ~26 nM | IC50 [12]: ~700 nM

Cc1ccc(-c2nc(C)c(C(OC(C)(C)C)C(=O)O)c(-c3ccc(Cl)cc3)c2C)cc1C (stereo not drawn) [KF115]
Selectivity ratio, IC50 IN-LEDGF/EC50 aberrant IN multimerization [1]: 47.4 | CC50 [2]: > 100000 nM | IC50 [13]: 13000 ± 1500 nM | EC50 [14]: 274 ± 25 nM | Selectivity Index, CC50/IC50 [4]: >826 | IC50 ([4]; Human immunodeficiency virus 1, read-out: Antiviral activity (IC50), HIV-1NL4-3, full replication cycle): ~121 nM

Cc1nnc(C(=O)NC(C)(C)c2nc(C(=O)NCc3ccc(F)cc3)c(O)c(=O)n2C)o1 [RAL, Raltegravir, reference compound]
effect on replication intermediates in target cells of virions produced in presence of inhibitor [15]: no inhibitory effects | effect on replication intermediates when inhibitor added to target cells [15]: selectively inhibited the integration step and increased the levels of 2-LTRs

B1: HIV-1 integrase (recombinant IN) (enzyme)
chain: FLDGIDKAQEEHEKYHSNWRAMASDFNLPPVVAKEIVASCDKCQLKGEAMHGQVDCSPGIWQLDCTHLEGKVILVAVHVASGYIEAEVIPAETGQETAYFLLKLAGRWPVKTVHTDNGSNFTSTTVKAACWWAGIKQEFGIPYNPQSQGVIESMNKELKKIIGQVRDQAEHLKTAVQMAVFIHNFKRKGGIGGYSAGERIVDIIATDIQTKELQKQITKIQNFRVYYRDSRDPVWKGPAKLLWKGEGAVVIQDNSDIKVVPRRKAKIIRDYGKQMAGDDCVASRQDED
notes: also called WT IN; source: recombinant
EC50 of KF115 for aberrant IN multimerization (with KF115) [16]: 274 nM | EC50 of KF116 for aberrant IN multimerization (with KF116) [16]: 86 nM

B2: HIV-1 integrase in virus particles (enzyme)
chain: B1 chain
notes: also called virion-associated IN
stoichiometry N [17]: 2
